What was measured:
[1] = system: NIH-v-Src fibroblasts; test: EGF-stimulated cell migration of transformed cells; type: cell-based; details: 10 ng/ml EGF, tracked 6 h before and 6 h after addition
Protocol: (§1) Image J was used to automatically quantify FAK-containing focal adhesions due to local maxima of fluorescence intensity in the GFP-channel (5 to 70 pixel). The number of cells was automatically counted in the Hoechst channel. To test reproducibility of the system 40 control wells were quantified wherein four positions for each well were imaged. […] GFP-FAK mouse embryonic fibroblasts were seeded on fibronectin and incubated for 1 h with the indicated concentrations of the small compounds, respectively. […] GFP-FAK mouse embryonic fibroblasts were seeded on fibronectin and serum-starved overnight. The indicated concentrations of Mb31 were applied for 30 min. Cells were lysed and analyzed for paxillin and FAK protein level as well as FAK Tyr397 phosphorylation. […] The purified kinase domain of FAK was incubated with increasing amounts of Mb31 for 1 h at 30°C together with poly-Glu-Tyr as a FAK substrate. […] Serum-starved GFP-FAK mouse embryonic fibroblasts were stimulated with normal growth medium and incubated for 5 h with the indicated concentrations of the small molecule compounds, respectively. Cell viability was assessed by MTT assay. […] GFP-FAK MEFs were seeded on fibronectin and serum-starved overnight. Migration was stimulated by replacing the medium with normal growth medium. Migration of single cells was tracked for 8 h in 30 min intervals. Migration was recorded from cells that were cultured without serum (A), with serum (B) or with serum in the presence of 3 µM Mb31 (C). […] (A) GFP-FAK MEFs were seeded and serum-starved as in Figure 10. Cell migration was stimulated with normal growth medium and single cells were tracked for 5 h. […] Mouse embryonic fibroblasts (MEFs) were transfected with talin-mCherry and talin dynamics analyzed in focal adhesions using fluorescence recovery after photobleaching (FRAP). […] (C) Wound closure was microscopically analyzed and evaluated using ImageJ software.
To further determine whether Mb31 interferes with cell motility, GFP-FAK MEFs were serum-stimulated and migration was quantified on a single cell basis (Figures 11 and 12). […]

[2] = target: T1, FAK/Paxillin (Mus musculus, UniProt P34152+Q8VI36); test: FAK/Paxillin displacement by structurally related compounds (FootLocker series, confocal microscopy); type: cell-based
T1 construct: expressed in transfected cells; host or cells: mouse fibroblasts stably expressing GFP-FAK
Protocol: To determine whether compounds structurally related to Mb31 and Mb36 are likewise suitable to interfere with FAK localization at focal adhesions, mouse fibroblasts stably expressing GFP-FAK were treated for 30 min with 1, 10 or 20 µM of the following compounds: trans-3-hydroxy-β-nitrostyrene (THBN), trans-4-Chloro-β-nitrostyrene (T4CN), trans-β-nitrostyrene (TBN), 4-chlorocinnamic acid (4CA), and trans-3-(4-bromothiophen-2-yl)acrylic acid (T34BA) (Figures 16 and 17). The cells were analyzed by confocal microscopy for GFP-FAK localization. DMSO treatment served as a vehicle control. […] Additional substituents at the aromatic structures, such as halogen atoms or hydroxy groups may contribute to the reactivity of the compound, but are not essential. Based on these findings, the inventors have extended their structure activity-relationship studies and synthesized additional related compounds, which, similar to Mb31, displace FAK and paxillin at concentrations below 10µM (++), displace FAK and paxillin at concentrations above 10 µM (+), or lack FAK and paxillin displacing activity (-). All these substances were then also nicknamed in the FLocker terminology, resulting in FLocker1 - FLocker24 (Table 2). Table 2: Overview of FootLocker nomenclature, their chemical notation/structure and the activity towards FAK/Paxillin displacement

[3] = system: MDA-MB-231 breast cancer cells; test: In vitro wound healing assay; type: cell-based, human; details: 3 µM, 25 h, serum-containing growth medium
Protocol: as §1, with “h. (B) Mb31 was added and the same cells were tracked for additional 5 h. (C) Mean velocities of differently treated cells were plotted over time. […] NIH-v-Src fibroblasts were seeded on 2 µg/ml FN in DMEM/0.5%BSA and stimulated with 10 ng/ml EGF or kept unstimulated.” for “h.”, “(FRAP). Cells were left untreated (A) or treated with 10 µM of Mb31 (B). In untreated cells, the mCherry intensity recovered, indicating replacement of bleached by non-bleached talin and therefore turnover of talin at focal adhesions.” for “(FRAP).”
To determine if the migration of transformed cells can be blocked by FLocker1 and related compounds, human breast carcinoma cells (MDA-MB-231) were used in in vitro wound healing assays. […] The ability of the cells to migrate and close the wound space was monitored by microscopy and quantified (Figure 18B and C).

T1 sequence (P34152 whole entry): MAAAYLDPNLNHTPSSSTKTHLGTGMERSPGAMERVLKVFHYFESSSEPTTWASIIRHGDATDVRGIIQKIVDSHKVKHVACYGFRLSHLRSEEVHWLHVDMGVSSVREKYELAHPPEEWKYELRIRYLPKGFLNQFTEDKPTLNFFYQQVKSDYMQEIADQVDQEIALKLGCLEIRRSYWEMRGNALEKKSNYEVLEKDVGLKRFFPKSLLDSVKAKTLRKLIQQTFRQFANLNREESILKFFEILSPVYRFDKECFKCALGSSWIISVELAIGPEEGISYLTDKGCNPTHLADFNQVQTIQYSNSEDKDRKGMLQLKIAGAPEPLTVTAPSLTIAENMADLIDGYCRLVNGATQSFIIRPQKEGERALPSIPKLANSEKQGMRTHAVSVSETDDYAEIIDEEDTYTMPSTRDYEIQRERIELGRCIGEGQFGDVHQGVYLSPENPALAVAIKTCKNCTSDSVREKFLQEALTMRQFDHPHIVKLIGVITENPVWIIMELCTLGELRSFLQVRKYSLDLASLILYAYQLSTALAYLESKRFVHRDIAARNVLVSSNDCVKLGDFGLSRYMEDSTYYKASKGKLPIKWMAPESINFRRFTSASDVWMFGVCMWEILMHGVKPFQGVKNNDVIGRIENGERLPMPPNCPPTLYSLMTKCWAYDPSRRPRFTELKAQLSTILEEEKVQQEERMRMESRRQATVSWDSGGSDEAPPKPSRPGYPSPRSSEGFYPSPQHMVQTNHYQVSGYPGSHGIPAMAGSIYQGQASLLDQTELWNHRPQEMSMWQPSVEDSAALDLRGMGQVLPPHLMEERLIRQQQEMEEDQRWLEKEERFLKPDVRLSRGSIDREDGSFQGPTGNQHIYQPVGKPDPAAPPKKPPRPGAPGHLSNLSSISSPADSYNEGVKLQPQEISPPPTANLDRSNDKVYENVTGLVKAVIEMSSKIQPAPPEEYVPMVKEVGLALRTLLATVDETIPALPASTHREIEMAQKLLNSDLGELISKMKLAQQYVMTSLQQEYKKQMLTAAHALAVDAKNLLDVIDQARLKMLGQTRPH
T1 sequence (Q8VI36 whole entry): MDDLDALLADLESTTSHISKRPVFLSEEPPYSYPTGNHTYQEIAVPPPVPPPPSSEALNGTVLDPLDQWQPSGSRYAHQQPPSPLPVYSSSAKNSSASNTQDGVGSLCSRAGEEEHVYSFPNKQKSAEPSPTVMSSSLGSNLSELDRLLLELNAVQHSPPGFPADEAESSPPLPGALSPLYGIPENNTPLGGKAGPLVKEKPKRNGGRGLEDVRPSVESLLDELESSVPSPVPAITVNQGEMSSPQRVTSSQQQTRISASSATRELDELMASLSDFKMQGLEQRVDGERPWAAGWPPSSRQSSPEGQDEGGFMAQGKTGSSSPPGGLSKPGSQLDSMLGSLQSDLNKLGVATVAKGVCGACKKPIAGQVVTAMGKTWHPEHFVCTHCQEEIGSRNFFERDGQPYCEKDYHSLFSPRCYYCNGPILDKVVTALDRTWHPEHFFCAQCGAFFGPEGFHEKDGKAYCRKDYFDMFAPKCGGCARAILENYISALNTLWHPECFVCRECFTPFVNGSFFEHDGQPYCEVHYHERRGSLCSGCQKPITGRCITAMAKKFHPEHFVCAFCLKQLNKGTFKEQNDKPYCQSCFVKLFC

SMILES	migration of EGF-stimulated cells [1]	FAK displacing ability ([2]; GFP-FAK mouse fibroblasts, 30 min, 1, 10 or 20 µM)	migration of cancer cells / wound closure [3]	compounds showing the most prominent effect on protein-protein interactions at focal adhesion site [2]	disruption of protein-protein interactions at focal adhesion site [2]
O=C(O)/C=C/c1cc(Br)cs1 [FootLocker 24, trans-3-(4-Bromothiophen-2-yl)acrylic acid, reference compound]	no effect	without FAK displacing ability	–	–	–
CN(c1ccccc1CNc1nc(Nc2ccc3c(c2)CC(=O)N3)ncc1C(F)(F)F)S(C)(=O)=O [PF431396]	efficiently inhibit the migration	–	–	–	–
O=[N+]([O-])/C=C/c1cccc(O)c1 [FootLocker 3, (E)-3-(2-nitrovinyl)phenol]	–	–	retarded the migration of the cancer cells	most prominent effect	efficiently disrupt protein-protein interactions at focal adhesion site

— patent EP2982368A1, “Small molecule compounds displacing focal adhesion core components” (Universität Konstanz, priority 2014, dated 2016)
